In patent US11104677B2, “Toll-like receptor 9 antagonists” (FRAUNHOFER-GESELLSCHAFT ZUR FÖRDERUNG DER ANGEWANDTEN …, priority 2015, dated 2021):

These molecules were tested against T1, TLR9 (Homo sapiens, UniProt Q9NR96) (assay: cell-based reporter assay (NIH 3T3 reporter cell line expressing TLR9, NF-kB driven SEAP, stimulated with CpG ODN 2216)). Conditions: FIG. 3; 5 μM ODN 2216, 0.12 μM-7.8 μM of antagonist.
T1 construct: expressed in transfected cells; host or cells: NIH 3T3 fibroblasts (mouse), stably transfected, NF-kB driven SEAP reporter
T1 sequence (Q9NR96 26-1032): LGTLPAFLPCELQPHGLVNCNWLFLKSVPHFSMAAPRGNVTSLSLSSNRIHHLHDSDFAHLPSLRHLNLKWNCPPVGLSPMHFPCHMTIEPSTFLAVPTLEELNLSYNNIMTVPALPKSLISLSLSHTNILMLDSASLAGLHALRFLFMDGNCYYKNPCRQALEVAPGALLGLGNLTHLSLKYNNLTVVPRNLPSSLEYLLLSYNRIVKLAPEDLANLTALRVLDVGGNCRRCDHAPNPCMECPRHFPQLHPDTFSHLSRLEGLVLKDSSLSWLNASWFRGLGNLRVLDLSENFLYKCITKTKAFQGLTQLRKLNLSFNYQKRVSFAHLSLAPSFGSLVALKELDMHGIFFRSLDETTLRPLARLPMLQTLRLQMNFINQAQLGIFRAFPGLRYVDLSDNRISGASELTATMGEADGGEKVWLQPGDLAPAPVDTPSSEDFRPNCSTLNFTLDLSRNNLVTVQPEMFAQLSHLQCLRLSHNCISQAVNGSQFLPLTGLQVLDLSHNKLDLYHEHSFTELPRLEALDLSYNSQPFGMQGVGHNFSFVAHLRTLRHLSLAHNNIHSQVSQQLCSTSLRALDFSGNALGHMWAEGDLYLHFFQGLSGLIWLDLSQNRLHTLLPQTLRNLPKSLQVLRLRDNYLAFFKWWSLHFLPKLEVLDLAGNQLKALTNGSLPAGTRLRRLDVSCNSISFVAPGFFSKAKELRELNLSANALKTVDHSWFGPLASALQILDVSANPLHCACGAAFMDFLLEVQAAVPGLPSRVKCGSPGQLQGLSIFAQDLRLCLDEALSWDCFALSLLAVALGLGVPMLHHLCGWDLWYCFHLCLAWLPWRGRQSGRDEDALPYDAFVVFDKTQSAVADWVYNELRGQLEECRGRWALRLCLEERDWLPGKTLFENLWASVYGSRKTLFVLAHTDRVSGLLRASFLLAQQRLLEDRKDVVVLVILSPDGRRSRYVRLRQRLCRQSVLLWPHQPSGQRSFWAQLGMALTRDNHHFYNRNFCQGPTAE
Procedure: In context with the present invention, the ‘IC50 value’ is the half maximum inhibitory concentration which is a measure of the effectiveness of a substance inhibiting the function of the TLR9. The IC50 value can be determined by a functional antagonist assay or a competition binding assay. Preferably, the IC50 value is determined by the cell-based reporter assay in section 3, below, of the examples.
A cell based test-system that allows PAMPs to be identified and differentiated via pattern recognition receptors (PRRs) in a reporter gene assay was used (DE 10 2006 031 483, EP 2 041 172). For this assay human PRRs and co-receptors were stably transfected and expressed in NIH 3T3 fibroblasts. This cell line expresses no other PRRs and contains a reporter gene which is activated by PRR-activation. The induction of receptor complexes by their ligands leads, after a signalling cascade, to an activation of transcription factor NF-kB, which regulates the expression of an additional integrated reporter gene, a secreted alkaline phosphatase (SEAP) (Burger-Kentischer, A.; Abele, I. S.; Finkelmeier, D.; Wiesmüller, K.-H.; Rupp, S., A new cell-based innate immune receptor assay for the examination of receptor activity, ligand specificity, signalling pathways and the detection of pyrogens. J. Immunol. Methods 2010, 358 (1), 93-103).
This test system mimics elements of the innate human immune system and can selectively recognize a large number of PAMPs with high sensitivity. Consequently, the PRR-specific cell-based high-throughput feature of the reporter cell lines will provide a fast, flexible and convenient means for lead compound screening in the pharmaceutical drug development fields. For the in vitro screening of the top candidates identified at IDR, the Fraunhofer IGB used this cell-based reporter system to identify TLR9 antagonists in order to determine their activity as well their biocompatibility. Within a first step the NIH3T3 cell line expressing TLR9 was used to measure the inhibitory effect of the TLR9 antagonists.
For the experiment the reporter cell line expressing TL9 was plated in 96-well cell culture plates at a density of 0.3×10^5 cells in DMEM media supplemented with 10% FCS (Invitrogen), 1% L-glutamine (200 mM Invitrogen) and 1% Penicillin-Streptomycin (PenStrep: 100×, Invitrogen). The cells were incubated for 16 h to grow adherent monolayers at 37° C. in a 5% saturated CO2 humidified atmosphere. After overnight incubation, the media was removed and replaced by DMEM medium supplemented with 1% PenStrep, 1% L-glutamine and 0.5% FCS. The media change is important to avoid a unspecific background signal, caused by active remaining phosphatases present in the FCS. The cells are then stimulated with a specific ligand non-methylated CpG ODN 2216 agonist (Invivogen) and the potential antagonists using different concentrations, namely within a range of concentrations of the potential antagonists starting with 0.025 μM (for the antagonist with the highest activity) up to 14 mM for the antagonists with lowest activities.
The ODN ligand has the sequence 5′-ggGGGACGA:TCGTCgggggg-3′ (SEQ ID No. 1). Those represented by capital letters are phosphodiesters, and those in small letters are phosphorothioate. The Palindrome is underlined.
The cells were again incubated in a humidified atmosphere for 16h leading to the expression or reduced expression of SEAP and its secretion into the media. Binding of the antagonist leads to a block of the TLR9, resulting in no or in a reduced expression of the reporter gene (SEAP). Therefore, 50 μl supernatant were taken from the cells and transferred into a 96-well PS microplate flat bottom (Greiner BIO-ONE). The enzyme substrate reaction was initiated by adding 50 μl of the specific substrate. SEAP catalyses the hydrolysis of pNPP to the final product para-nitrophenol (yellow), which can be detected in a photometric analysis using an UV-VIS reader at 405 nm. […]
In the case of `c1ccc(-n2cc(CNCCCN3CCOCC3)c(-c3cc4ccccc4o3)n2)cc1` [T5570245], the ODN2216 signal is reported as “dose dependent reduction of the signal”.

Same assay, conditions: FIG. 3; 5 μM ODN 2216, 0.12 μM-7.8 μM of antagonist; read-out: IC50 value
`c1ccc(-n2cc(CNCCCN3CCOCC3)c(-c3cc4ccccc4o3)n2)cc1` [T5570245] was tested, and the IC50 was 0.8 µM.

Same assay, conditions: Table 5; first 30 candidates; ODN 2216 agonist; n≥3
With `Cc1ccc(N2CCN(/N=C/C=C/c3ccccc3)CC2)cc1` [T0505-2171, N(/N1CCN(CC1)c1ccc(cc1)C)═C\C═C\c1ccccc1] the “IC50 in [μM]” value was “agonist”.
In the case of `c1ccc(-c2cc(-c3cccnc3)nc3ccccc23)cc1` [T5762626, n1c2c(cccc2)c(cc1-c1cccnc1)-c1ccccc1], the “IC50 in [μM]” value is reported as “agonist”.

Same assay, conditions: Table 5; first 30 candidates; ODN 2216 agonist; n≥3; read-out: IC50 in
`COc1ccc2c(-c3ccccc3)cc(N3CCOCC3)nc2c1` [T0513-5752, O1CCN(CC1)c1nc2c(ccc(OC)c2)c(c1)-c1ccccc1] showed an IC50 of 7.77 µM.
In the case of `COc1ccc(-n2c(-c3ccncc3)nc3ccccc32)cc1` [T5771455, O(C)c1ccc(-n2c3c(nc2-c2ccncc2)cccc3)cc1], the IC50 is reported as 11.9 µM.
`COc1ccc(/C=N/c2ccc3nc(C)ccc3c2)cc1` [T0501-1111, O(C)c1ccc(cc1)\C═N\c1cc2c(nc(cc2)C)cc1] showed an IC50 of 488 µM.
Work on `c1ccc(-c2nc3ccccc3nc2-c2ccccc2)cc1` [T0504-1257, n1c2c(nc(c1-c1ccccc1)-c1ccccc1)cccc2] yielded an IC50 of 1990 µM.
In the case of `COc1ccccc1N1CCN(c2ccc3ccccc3n2)CC1` [T5547436, O(C)c1ccccc1N1CCN(CC1)c1nc2c(cc1)cccc2], the IC50 is reported as 1160 µM.
For `COc1ccc(/C=C/c2ccc3ccccc3n2)c(OC)c1` [T5713724, O(C)c1cc(OC)ccc1\C═C\c1nc2c(cc1)cccc2], the IC50 was 15.9 µM.
Work on `C(=C\c1ccc2ccccc2n1)/c1ccc(-n2ccnc2)cc1` [T5500062, n1c2c(ccc1\C═C\c1ccc(-n3ccnc3)cc1)cccc2] yielded an IC50 of 777 µM.
For `COc1ccc(OCCOc2cccc3cccnc23)cc1` [T5771955, O(CCOc1ccc(OC)cc1)c1c2ncccc2ccc1], the IC50 was 650 µM.
With `COc1cccc(OCCCCn2cnc3ccccc32)c1` [T6416309, O(CCCCn1c2c(nc1)cccc2)c1cc(OC)ccc1] the IC50 was 13.3 µM.
`c1ccc(-c2cc(-c3ccncc3)nc3ccccc23)cc1` [T6306924, n1c2c(cccc2)c(cc1-c1ccncc1)-c1ccccc1] showed an IC50 of 870 µM.
`COc1ccc(/C=C/c2ccc3ccccc3n2)cc1OC` [T6895608, O(C)c1cc(ccc1OC)\C═C\c1nc2c(cc1)cccc2] gave an IC50 of 8.91 µM.
Work on `Cc1cc(-c2ccc(-n3ccnc3)cc2)nc2ccccc12` [T5803292, n1c2c(cccc2)c(cc1-c1ccc(-n2ccnc2)cc1)C] yielded an IC50 of 4270 µM.
Work on `COc1ccc2nc3c(nc2c1)-c1cccc2cccc-3c12` [T0504-1221, O(C)c1cc2nc3-c4c5c(-c3nc2cc1)cccc5ccc4] yielded an IC50 of 65.6 µM.
With `CCOc1ccccc1OCCOc1cccc2cccnc12` [T0513-2251, O(CCOc1c2ncccc2ccc1)c1ccccc1OCC] the IC50 was 1080 µM.
Molecule `COc1ccc(OCCN(C)c2ncnc3c2oc2ccccc23)cc1` [T6593995, o1c2c(ncnc2N(CCOc2ccc(OC)cc2)C)c2c1cccc2] has an IC50 of 905 µM.
`c1ccc2c(NCCNc3ncnc4ccccc34)cccc2c1` [T5807811, n1cnc2c(cccc2)c1NCCNc1c2c(ccc1)cccc2] showed an IC50 of 57 µM.
`c1ccc(OCCn2c(-c3ccco3)nc3ccccc32)cc1` [T5456813, o1cccc1-c1nc2c(n1CCOc1ccccc1)cccc2] was tested, and the IC50 was 73.2 µM.
With `COc1cc(/C=C/c2ccc3ccccc3n2)cc(OC)c1` [T5702130, O(C)c1cc(cc(OC)c1)\C═C\c1nc2c(cc1)cccc2] the IC50 was 7.27 µM.
In the case of `COCCNc1ncnc2c1c(-c1ccccc1)cn2-c1ccc(OC)cc1` [T6015017, O(C)c1ccc(-n2cc(c3c2ncnc3NCCOC)-c2ccccc2)cc1], the IC50 is reported as 2030 µM.
`CN(C)c1ccc(/C=C/c2ccc3ccccc3n2)cc1` [T0506-4124, n1c2c(ccc1\C═C\c1ccc(N(C)C)cc1)cccc2] showed an IC50 of 312 µM.
With `COc1ccc(CCN(C)c2ncnc3c2oc2ccccc23)cc1OC` [T0519-4581, o1c2c(ncnc2N(CCc2cc(OC)c(OC)cc2)C)c2c1cccc2] the IC50 was 15.1 µM.
Molecule `c1ccc(-c2cn3c(n2)CCc2ccc4cccnc4c2-3)cc1` [T0502-6934, n1c2n(cc1-c1ccccc1)-c1c(CC2)ccc2c1nccc2] has an IC50 of 13200 µM.

Same assay, conditions: in the presence of 5 μM of the ODN 2216 agonist; read-out: IC50 in
With `COc1ccc(CNc2nc3ccccc3n2CCN2CCCCC2)cc1OC` [T0503-2983] the IC50 was 6.78 µM.
With `c1ccc(Cn2cc(CNCc3ccc(CN4CCOCC4)cc3)c(-c3cccnc3)n2)cc1` [T6216617] the IC50 was 7.56 µM.
In the case of `CCCN1CCC(NCc2cn(-c3ccccc3)nc2-c2ccc3c(c2)OCCO3)CC1` [T5587050], the IC50 is reported as 1.87 µM.
Molecule `COc1cc(CN2CCN(CCN3CCCC3)CC2)ccc1OCc1ccc(Cl)cc1` [T5428933] has an IC50 of 0.962 µM.
With `COc1ccc(-c2nn(-c3ccccc3)cc2CNCc2ccccc2CN2CCOCC2)cc1` [T5571341] the IC50 was 3.14 µM.
`CN(C)CCCNCc1cn(-c2ccccc2)nc1-c1ccc2c(c1)OCCO2` [T5581953] gave an IC50 of 0.201 µM.
Work on `COc1cc2nc(-c3ccccc3)nc(N3CCN(CCN4CCCC4)CC3)c2cc1OC` [T5669070] yielded an IC50 of 0.0536 µM.
With `c1ccc(-n2cc(CNCCCN3CCOCC3)c(-c3cc4ccccc4o3)n2)cc1` [T5570245] the IC50 was 0.815 µM.
`CC(C)(c1ccccc1)c1ccc(OCCCNCCN2CCOCC2)cc1` [T5793071] showed an IC50 of 6.43 µM.
`COc1ccc(-c2nn(-c3ccccc3)cc2CNCc2ccccc2CN2CCOCC2)cc1OC` [T6083277] gave an IC50 of 7.51 µM.
`CCN1CCC(NCc2cn(-c3ccccc3)nc2-c2ccc3c(c2)OCCO3)CC1` [T5581955] showed an IC50 of 1.44 µM.
Work on `c1ccc(CN2CCN(c3ccnc(N4CCN(Cc5ccccc5)CC4)n3)CC2)cc1` [T5453081] yielded an IC50 of 1.6 µM.
`Clc1ccc(CN2CCC(NCc3ccc(-n4ccnc4)cc3)CC2)cc1` [T6683896] was tested, and the IC50 was 0.896 µM.
In the case of `COc1cc(CNC2CCN(Cc3ccccc3)CC2)ccc1OCc1c(C)noc1C` [T5364934], the IC50 is reported as 1.62 µM.
Work on `Clc1ccc(-c2nn(Cc3ccccc3)cc2CN2CCN(CCN3CCCC3)CC2)cc1` [T5535483] yielded an IC50 of 3.82 µM.
Work on `COc1ccc(CN2CCN(Cc3c(-c4ccccc4)nc4ccccn34)CC2)cc1OC` [T5635793] yielded an IC50 of 6.32 µM.
In the case of `CCN1CCC(NCc2ccc(-n3cnc4ccccc43)cc2)CC1` [T5820428], the IC50 is reported as 1.78 µM.
In the case of `c1ccc(-n2cc(CNCCN3CCCC3)c(-c3ccc4c(c3)OCCO4)n2)cc1` [T5581956], the IC50 is reported as 3.16 µM.
